Experimental data published in US20240165018A1, “HYDROGEL IMPLANTS FOR LOWERING INTRAOCULAR PRESSURE” (OCULAR THERAPEUTIX, INC., priority 2019, published 2024).
Where two headings read alike, the source gives them in different places.

Tests used:
[1] = tested on: glaucomatous beagles; experiment: Pupil diameter changes in glaucomatous beagles after travoprost instillations; assay type: in vivo
Source text: (§1) A pharmacodynamic study performed in twelve glaucomatous beagles evaluated the changes in intraocular pressure (IOP) and pupil diameter (PD) after instillations of 0.033, 0.0033, 0.001, 0.00033, and 0.0001% travoprost in multiple single-dose studies.

[2] = tested on: lasered hypertensive cynomolgus monkeys; settings: cited from earlier work
[3] = tested on: subjects with primary open-angle glaucoma or ocular hypertension; experiment: IOP in subjects with primary open-angle glaucoma or ocular hypertension; assay type: in vivo, human; settings: patients
Source text: Patient population was controlled ocular hypertension or primary open-angle glaucoma; open, normal anterior chamber angles on gonioscopy. Primary outcomes were as follows. Diurnal IOP (8 AM, 10 AM, 4 PM) at Baseline. Day 14. Day 42. Day 85, Month 4 and Month 6. Intraocular pressure at 8 AM at Day 1. Day 3. Day 7 and Day 28. Safety evaluations, including adverse event reporting, ocular comfort, global tolerance, BCVA, endothelial cell counts, and pachymetry.

[4] = tested on: glaucomatous beagles; experiment: IOP changes in glaucomatous beagles after travoprost instillations; assay type: in vivo
Source text: as §1

In the case of `CC(C)OC(=O)CCC/C=C\C[C@@H]1[C@@H](/C=C/[C@@H](O)COc2cccc(C(F)(F)F)c2)[C@H](O)C[C@@H]1O` [travoprost], the PD changes ([1]; 0.0001% concentration) is reported as “still significant”, the “pupil constriction maintained for 24 hours” value ([1]; all dosage strengths) is reported as “no dosage strength maintained pupil constriction for 24 hours” and the “effect on pupil diameter (PD)” value ([1]; concentrations of 0.00033, 0.001, and 0.0033%) is reported as “significantly lowered”. For the same compound, the IOP lowering ([2]; continued twice a day dosing at 0.1 μg, after doses 4 and 5) was “significant lowering of IOP”, the IOP lowering ([2]; single dose of 0.1 μg) was “did not significantly lower IOP” and the IOP reduction ([2]; single dose of 0.3 μg) was 19-26%. The “onset of decrease in mean IOP following administration” value [3] was “as early as two days”, the “effect on IOP” value ([4]; 0.0001% concentration) was “limited IOP changes” and the “effect on IOP” value ([4]; concentrations of 0.00033, 0.001, and 0.0033%, single-dose instillation) was “significantly lowered”. The “dosage strength that maintained IOP reduction for 24 hours” value ([4]; dog, in vivo) was ≥ 0.001%.
